This assay concerns the target Calpain-1 (Sus scrofa). The assay can be described thus: In vitro inhibition of porcine erythrocyte calpain 1.

Where only a bound is given, the exact number is not on record here.

By Ki is commonly meant a dissociation constant, usually derived from enzyme kinetics or from competition with a known ligand. Read a low Ki as higher affinity. Compound `CC(C)C[C@H](NC(=O)OCc1ccccc1)C(=O)N[C@H](Cc1ccccc1)C(=O)C(=O)N[C@@H](C)C(=O)O` [(S)-2-[(R)-3-((S)-2-Benzyloxycarbonylamino-4-methyl-pentanoylamino)-2-oxo-4-phenyl-butyrylamino]-propionic acid] gave a Ki of 718 nM.

For the compound `COC(=O)[C@H](C)NC(=O)C(=O)[C@@H](Cc1ccccc1)NC(=O)[C@H](CC(C)C)NC(=O)OCc1ccccc1` [(S)-2-[(R)-3-((S)-2-Benzyloxycarbonylamino-4-methyl-pentanoylamino)-2-oxo-4-phenyl-butyrylamino]-propionic acid methyl ester], the inhibition constant (Ki) came to 92 nM.

`CCNC(=O)C(O)[C@@H](Cc1ccccc1)NC(=O)[C@H](CC(C)C)NC(=O)OCc1ccccc1` (stereo partly drawn) [[(S)-1-((R)-1-Benzyl-2-ethylcarbamoyl-2-hydroxy-ethylcarbamoyl)-3-methyl-butyl]-carbamic acid benzyl ester] gave a Ki of over 350000 nM.

For the origin of these results see BindingDB's records for doi:10.1021/jm00044a013 (Alkermes, 1994).
